The results in this text go back to US20070037263A1, “Novel acetoacetyl-coa reductase and process for producing optically active alcohol” (priority 2003, published 2007).

The test deals with RAX (acetoacetyl-CoA reductase). As to the kind of experiment: Ethyl 4-chloroacetoacetate reducing activity of RAX in the presence of inhibitors. The class given is biochemical. The conditions noted are these: for enzyme activity inhibited (in words): summary of Table 1.
Setting [1] is: inhibitor 1.0 mM, 10 mM ethyl 4-chloroacetoacetate, 0.25 mM NADPH, pH 6.5, 30° C., 3 minutes, activity without inhibitor = 100%.

For the compound `O=S(=O)(F)Cc1ccccc1` [Phenylmethylsulfonyl fluoride], the Relative activity under setting [1] came to 108%. As to `O=S(=O)([O-])[O-].[Cu+2]` [CuSO4, copper sulfate], the “enzyme activity inhibited (in words)” value was “inhibited”. Moreover, the Relative activity under setting [1] stood at 0%. Regarding `O=S(=O)([O-])[O-].[Zn+2]` [ZnSO4], the Relative activity under setting [1] is 81%. With `CCN1C(=O)C=CC1=O` [N-Ethylmaleimide], under setting [1], the Relative activity was 103%. In the case of `[Cl-].[Cl-].[Co+2]` [CoCl2], under “pH 6.5”, the Relative activity came out at 108%.

With `O=C(O)c1cc[c]([Hg][Cl])cc1` [p-Chloromercuribenzoic acid], the “enzyme activity inhibited (in words)” value is reported as “inhibited”. Further, the Relative activity under setting [1] worked out at 0%.

`O=S(=O)([O-])[O-].[Mg+2]` [MgSO4]: the Relative activity under setting [1] is recorded as 100%.

For `[Cl][Mn][Cl]` [MnCl2], under setting [1], the Relative activity was 97%. In the case of `O=[N+]([O-])[O-].[Ag+]` [AgNO3, silver nitrate], the “enzyme activity inhibited (in words)” value was “inhibited”. Also, the Relative activity (inhibitor 0.1 mM, 10 mM ethyl 4-chloroacetoacetate, 0.25 mM NADPH, pH 6.5, 30° C., 3 minutes, activity without inhibitor = 100%) is recorded as 0%. Regarding `[Cl][Hg][Cl]` [HgCl2, mercury chloride], the “enzyme activity inhibited (in words)” value is given as “inhibited”. Also, the Relative activity (inhibitor 0.01 mM, 10 mM ethyl 4-chloroacetoacetate, 0.25 mM NADPH, pH 6.5, 30° C., 3 minutes, activity without inhibitor = 100%) is recorded as 0%.

On to `O=C(O)CN(CCN(CC(=O)O)CC(=O)O)CC(=O)O` [EDTA], for which the Relative activity (pH 6.5) turned out to be 83%. On the same count and under the same terms, with `O=C(O)CI` [Iodoacetic acid] the figure was 98%.
